Assay results: patent US20230277630A1, “METHODS AND COMPOSITIONS FOR TREATING AMYOTROPHIC LATERAL SCLEROSIS” (Amylyx Pharmaceuticals, Inc., priority 2022, published 2023)
Where two headings read alike, the source gives them in different places.

How the values were obtained:
hrCYP2C8 = molecular target: T1, hrCYP2C8 (Homo sapiens, UniProt P10632); conditions: recombinant enzyme, 5 μM, pH 7.4
T1 sequence (P10632 1-490): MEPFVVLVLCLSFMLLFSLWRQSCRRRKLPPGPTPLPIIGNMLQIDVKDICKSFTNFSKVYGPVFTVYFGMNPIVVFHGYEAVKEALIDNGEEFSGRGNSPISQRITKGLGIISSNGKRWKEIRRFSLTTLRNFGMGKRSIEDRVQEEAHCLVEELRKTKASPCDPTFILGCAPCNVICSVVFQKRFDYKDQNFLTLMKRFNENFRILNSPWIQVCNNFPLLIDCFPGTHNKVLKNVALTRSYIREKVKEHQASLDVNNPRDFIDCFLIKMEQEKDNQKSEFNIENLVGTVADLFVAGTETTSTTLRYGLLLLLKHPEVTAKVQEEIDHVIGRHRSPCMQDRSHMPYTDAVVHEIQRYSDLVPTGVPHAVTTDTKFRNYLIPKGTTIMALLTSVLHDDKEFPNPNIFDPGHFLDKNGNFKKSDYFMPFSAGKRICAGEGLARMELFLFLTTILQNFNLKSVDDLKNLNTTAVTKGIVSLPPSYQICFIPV
Experimental: (§1) The reaction was initiated by the addition of NADPH, followed by incubation at 37° C.
(§2) % Remaining of TA=100×At/A0
(§3) Where, At is the peak area ratio of TA to internal standard (IS) at time t, A0 is the average peak area ratio of TA to IS at time zero.

hrCYP2C9 = hrCYP2C9 (Homo sapiens, UniProt P11712); conditions: recombinant enzyme, 5 μM, pH 7.4
Experimental: as §1, §2, §3

hrCYP2B6 = molecular target: T2, hrCYP2B6 (Homo sapiens, UniProt P20813); conditions: recombinant enzyme, 5 μM, pH 7.4
T2 sequence (P20813 1-491): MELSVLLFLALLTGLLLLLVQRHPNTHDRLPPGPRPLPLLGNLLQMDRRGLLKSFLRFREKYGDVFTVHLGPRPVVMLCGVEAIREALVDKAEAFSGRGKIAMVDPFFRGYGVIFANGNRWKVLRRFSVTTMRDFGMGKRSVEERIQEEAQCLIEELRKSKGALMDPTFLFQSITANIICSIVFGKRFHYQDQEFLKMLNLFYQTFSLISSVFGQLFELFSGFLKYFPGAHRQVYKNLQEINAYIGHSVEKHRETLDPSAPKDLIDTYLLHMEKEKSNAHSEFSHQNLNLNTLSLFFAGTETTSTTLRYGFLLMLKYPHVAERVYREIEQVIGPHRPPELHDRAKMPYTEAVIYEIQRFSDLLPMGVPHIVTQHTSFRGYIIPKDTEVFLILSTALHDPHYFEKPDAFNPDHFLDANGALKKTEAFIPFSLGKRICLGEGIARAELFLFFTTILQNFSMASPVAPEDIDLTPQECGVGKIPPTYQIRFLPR
Experimental: as §1, §2, §3

hrCYP1A2 = molecular target: T3, hrCYP1A2 (Homo sapiens, UniProt P05177); conditions: recombinant enzyme, 5 μM, pH 7.4
T3 sequence (P05177 1-516): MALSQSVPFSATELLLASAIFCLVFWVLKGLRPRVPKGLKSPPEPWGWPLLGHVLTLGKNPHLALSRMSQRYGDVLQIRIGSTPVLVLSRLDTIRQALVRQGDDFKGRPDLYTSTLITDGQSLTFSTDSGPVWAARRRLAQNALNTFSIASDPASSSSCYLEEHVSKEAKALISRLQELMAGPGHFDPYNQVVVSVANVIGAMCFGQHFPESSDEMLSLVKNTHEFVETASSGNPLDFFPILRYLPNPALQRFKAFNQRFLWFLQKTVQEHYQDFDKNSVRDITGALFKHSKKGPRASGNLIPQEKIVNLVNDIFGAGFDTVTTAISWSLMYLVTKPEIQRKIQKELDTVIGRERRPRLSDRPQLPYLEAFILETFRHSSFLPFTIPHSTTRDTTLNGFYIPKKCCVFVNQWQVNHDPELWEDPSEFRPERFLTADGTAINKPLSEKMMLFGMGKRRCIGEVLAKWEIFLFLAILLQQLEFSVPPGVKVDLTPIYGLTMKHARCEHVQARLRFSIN
Experimental: as §1, §2, §3

hrCYP2C19 = hrCYP2C19 (Homo sapiens, UniProt P33261); conditions: recombinant enzyme, 5 μM, pH 7.4
Experimental: as §1, §2, §3

[1] = Relevant concentrations of TUDCA and PB for in vitro transporter assessment ([I]1, [I]2, Iin,max); conditions: for Plasma Cmax (total [I]1): component of AMX0035; for [I]2: estimated, highest oral dose TUDCA 1000 mg, PB 3000 mg; for Unbound Cmax (Unbound [I]1) / Unbound [I]in, max: projected

Chain of hrCYP2C19 (P33261 whole entry): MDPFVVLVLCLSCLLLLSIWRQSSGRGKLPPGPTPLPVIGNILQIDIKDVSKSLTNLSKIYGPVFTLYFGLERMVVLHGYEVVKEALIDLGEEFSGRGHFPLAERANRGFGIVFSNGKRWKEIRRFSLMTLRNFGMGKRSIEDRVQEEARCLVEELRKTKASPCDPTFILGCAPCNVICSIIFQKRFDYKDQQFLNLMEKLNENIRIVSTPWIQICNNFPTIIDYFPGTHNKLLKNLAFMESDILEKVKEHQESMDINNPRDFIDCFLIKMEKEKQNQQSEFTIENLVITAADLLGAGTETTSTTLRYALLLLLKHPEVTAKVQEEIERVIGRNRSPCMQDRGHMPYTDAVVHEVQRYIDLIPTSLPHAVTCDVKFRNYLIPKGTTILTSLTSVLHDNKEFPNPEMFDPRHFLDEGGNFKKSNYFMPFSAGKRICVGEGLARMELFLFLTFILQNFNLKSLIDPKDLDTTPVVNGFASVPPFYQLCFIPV
Chain of hrCYP2C9 (P11712 whole entry): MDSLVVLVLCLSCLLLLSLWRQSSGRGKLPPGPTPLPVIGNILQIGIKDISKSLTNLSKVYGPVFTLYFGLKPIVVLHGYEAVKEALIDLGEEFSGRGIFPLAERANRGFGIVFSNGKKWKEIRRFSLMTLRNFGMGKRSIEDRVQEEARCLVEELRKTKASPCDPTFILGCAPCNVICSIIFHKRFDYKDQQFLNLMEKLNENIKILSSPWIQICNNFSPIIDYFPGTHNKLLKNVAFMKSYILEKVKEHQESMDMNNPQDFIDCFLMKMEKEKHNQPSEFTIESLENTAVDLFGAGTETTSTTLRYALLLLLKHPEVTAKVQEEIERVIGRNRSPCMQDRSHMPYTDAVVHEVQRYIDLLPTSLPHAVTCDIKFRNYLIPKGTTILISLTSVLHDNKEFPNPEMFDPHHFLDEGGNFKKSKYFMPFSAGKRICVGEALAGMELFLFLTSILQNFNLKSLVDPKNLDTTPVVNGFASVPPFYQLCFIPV

## C[C@H](CCC(=O)NCCS(=O)(=O)O)[C@H]1CC[C@H]2[C@@H]3[C@@H](O)C[C@@H]4C[C@H](O)CC[C@]4(C)[C@H]3CC[C@]12C [TUDCA, tauroursodeoxycholic acid]
hrCYP2C8; 0 h
  % Remaining of TA: 100%
hrCYP2C8; 10 min
  % Remaining of TA: 99.3%
hrCYP2C8; 20 min
  % Remaining of TA: 101%
hrCYP2C8; 0.5 h
  % Remaining of TA: 101%
hrCYP2C8; 1 h
  % Remaining of TA: 99.8%
  % remained after 60 minutes of incubation: greater than 90%
hrCYP2C9; 0 h
  % Remaining of TA: 100%
hrCYP2C9; 5 min
  % Remaining of TA: 96.0%
hrCYP2C9; 10 min
  % Remaining of TA: 98.8%
hrCYP2C9; 20 min
  % Remaining of TA: 98.5%
hrCYP2C9; 0.5 h
  % Remaining of TA: 97.8%
hrCYP2C9; 1 h
  % Remaining of TA: 90.3%
  % remained after 60 minutes of incubation: greater than 90%
hrCYP2B6; 0 h
  % Remaining of TA: 100%
hrCYP2B6; 5 min
  % Remaining of TA: 97.6%
hrCYP2B6; 10 min
  % Remaining of TA: 97.0%
hrCYP2B6; 20 min
  % Remaining of TA: 99.3%
hrCYP2B6; 0.5 h
  % Remaining of TA: 99.7%
hrCYP2B6; 1 h
  % Remaining of TA: 101%
  % remained after 60 minutes of incubation: greater than 90%
hrCYP1A2; 0 h
  % Remaining of TA: 100%
hrCYP1A2; 5 min
  % Remaining of TA: 98.0%
hrCYP1A2; 10 min
  % Remaining of TA: 101%
hrCYP1A2; 20 min
  % Remaining of TA: 99.9%
hrCYP1A2; 0.5 h
  % Remaining of TA: 103%
hrCYP1A2; 1 h
  % Remaining of TA: 90.5%
  % remained after 60 minutes of incubation: greater than 90%
hrCYP2C19; 0 h
  % Remaining of TA: 100%
hrCYP2C19; 5 min
  % Remaining of TA: 96.1%
hrCYP2C19; 10 min
  % Remaining of TA: 98.7%
hrCYP2C19; 20 min
  % Remaining of TA: 94.8%
hrCYP2C19; 0.5 h
  % Remaining of TA: 95.1%
hrCYP2C19; 1 h
  % remained after 60 minutes of incubation: greater than 90%
[1]; Table 28
  estimated [I]2: 8005 µM
  projected unbound Cmax: 1.62 µM
  unbound [I]1: 1.62 µM
[1]
  Plasma Cmax (total [I]1): 108 µM
  [I]2: 8005 µM
  Unbound Cmax (Unbound [I]1): 1.62 µM
  Unbound [I]in, max: 3.48 µM
[1]; oral administration, Table 28
  projected unbound Iin,max: 3.48 µM

## O=C(O)CCCc1ccccc1 [PB, sodium phenylbutyrate]
hrCYP2C8; 1 h
  % remained after 60 minutes of incubation: greater than 90%
hrCYP2C9; 0 h
  % Remaining of TA: 100%
hrCYP2C9; 20 min
  % Remaining of TA: 99.5%
hrCYP2C9; 1 h
  % Remaining of TA: 98.0%
  % remained after 60 minutes of incubation: greater than 90%
hrCYP2B6; 1 h
  % remained after 60 minutes of incubation: greater than 90%
hrCYP1A2; 0 h
  % Remaining of TA: 100%
hrCYP1A2; 5 min
  % Remaining of TA: 98.3%
hrCYP1A2; 20 min
  % Remaining of TA: 99.9%
hrCYP1A2; 0.5 h
  % Remaining of TA: 101%
hrCYP1A2; 1 h
  % Remaining of TA: 95.1%
  % remained after 60 minutes of incubation: greater than 90%
hrCYP2C19; 0 h
  % Remaining of TA: 100%
hrCYP2C19; 5 min
  % Remaining of TA: 97.4%
hrCYP2C19; 10 min
  % Remaining of TA: 101%
hrCYP2C19; 20 min
  % Remaining of TA: 99.7%
hrCYP2C19; 0.5 h
  % Remaining of TA: 97.5%
hrCYP2C19; 1 h
  % Remaining of TA: 99.8%
  % remained after 60 minutes of incubation: greater than 90%
[1]; Table 28
  estimated [I]2: 64447 µM
  projected unbound Cmax: 148 µM
[1]
  Plasma Cmax (total [I]1): 826 µM
  [I]2: 64447 µM
  Unbound Cmax (Unbound [I]1): 148 µM
  Unbound [I]in, max: 326 µM
[1]; human
  projected unbound Iin,max: 326 µM
  unbound [I]1: 148 µM
